ChEMBL document CHEMBL4715753, “Bridging computational modeling with amino acid replacements to investigate GHS-R1a-peptidomimetic recognition” (Eur J Med Chem, 2016)
pIC50: −log10 of the molar value.

Target: Growth hormone secretagogue receptor type 1 (Homo sapiens, UniProt Q92847)
Assay: Displacement of [125I-His9]-ghrelin from GHS-R1a (unknown origin) expressed in human HEK293 cells incubated for 20 mins by gamma scintillation counting method
Format: cell-based

Sequence of Growth hormone secretagogue receptor type 1 (Q92847 whole entry): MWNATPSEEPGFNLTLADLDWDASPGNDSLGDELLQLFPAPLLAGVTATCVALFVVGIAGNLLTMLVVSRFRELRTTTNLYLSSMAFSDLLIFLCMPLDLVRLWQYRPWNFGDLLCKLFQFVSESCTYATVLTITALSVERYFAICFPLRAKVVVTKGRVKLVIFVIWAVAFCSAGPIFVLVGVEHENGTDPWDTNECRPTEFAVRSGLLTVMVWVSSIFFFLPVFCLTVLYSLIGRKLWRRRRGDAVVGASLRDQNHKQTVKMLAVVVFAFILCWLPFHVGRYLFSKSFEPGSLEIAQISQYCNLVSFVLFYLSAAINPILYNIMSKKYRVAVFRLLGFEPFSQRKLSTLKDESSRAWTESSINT

Row | pIC50 | Structure (SMILES)
1 | < 5.00 | C[C@H](NC(=O)C1CCNCC1)C(=O)N[C@H](Cc1ccc2ccccc2c1)C(=O)N[C@@H](Cc1ccccc1)C(=O)N[C@@H](CCCCN)C(N)=O
2 | 7.60 | NCCCC[C@H](NC(=O)[C@H](Cc1ccncc1)NC(=O)[C@@H](Cc1ccc2ccccc2c1)NC(=O)[C@@H](Cc1ccc2ccccc2c1)NC(=O)C1CCNCC1)C(N)=O
